Measurements as given in patent publication US20190225670A1, “COMPOUNDS AND METHODS FOR ACTIVATING TIE2 SIGNALING” (ASCLEPIX THERAPEUTICS, LLC, priority 2016, published 2019).
Entries after “also recorded” stand apart in the source; their conditions may differ.

Assays:
Tie2 = assay: Western blot of phospho-Tie2 (Y992) in MEC monolayers treated with AXT107 and angiopoietin; type: cell-based, human
Method: (§1) A confluent monolayer of human microvascular endothelial cells (HMEC) was serum starved with EBM-2 overnight. After a 90 min treatment with AXT107 at concentrations of 0, 10, 32, and 100 μM, the cells were treated for 15 min with 1 mM sodium orthovanadate. Next the cells were treated with Angiopoietin-2 (Ang-2) at 200 ng/mL for 15 min. Following cell lysis, the lysates were immunoblotted for pTie2 (Y992), pSTAT3 (Y705), and pAkt (S473).
To investigate the effects of the integrin inhibitor AXT107 on Tie2 signaling, confluent monolayers of microvascular endothelial cells (MECs) on fibronectin-coated dishes were treated with various concentrations of AXT107 followed by exposure to the Tie2 ligands Ang1 or Ang2.
For Ang1/2 signaling investigations, cell culture dishes (10 cm diameter) were coated with 5 μg/ml fibronectin (FN1; Sigma-Aldrich, St. Louis, Mo.) for two hours at 37° C. The FN1 solution was then removed by aspiration and 5×10^6 microvascular endothelial cells (MECs; Lonza, Walkersville, Md.) were plated in EGM-2MV media (Lonza) and cultured for forty-eight hours at 37° C. The cells were then serum starved for sixteen hours in serum-free EGM-2 base media (Lonza). AXT107 (0-100 μM, as indicated) was subsequently added to each culture and incubated for seventy-five minutes at 37° C. The cultures were then treated with 1 mM sodium vanadate (New England Biolabs, Ipswich, Mass.) for fifteen minutes to enhance the phospho-Tie2 signal followed by stimulation with 200 ng/ml angiopoietin (R&D Systems, Minneapolis, Minn.) for an additional fifteen minutes. The cells were then transferred to ice, washed twice with ice cold Dulbecco's phosphate-buffered saline (dPBS) containing Ca^2+ and Mg^2+, and collected by scraping in 500 μl of 1×Blue Loading Buffer (Cell Signaling, Danvers, Mass.). Lysate samples were then sonicated, boiled, and resolved by SDS-PAGE. Specific proteins were identified by Western blot, using the following primary antibodies: Cell Signaling—phospho-Tie2 (Y992) (Cat#: 4221), Tie2 (Cat#: 7403), phospho-Stat3 (Y705) (Cat#: 4113), Stat3 (Cat#: 4904), phospho-Akt (S473) (Cat#: 4058), Akt (Cat#: 9272), phospho-p44/42 MAPK (T202/Y204) (Cat#: 4370), p44/42 MAPK (Cat#: 4695); BD Transduction Laboratories—β1 integrin (Cat#: 610467); Millipore—α5 integrin (Cat#: AB1928) and detected with HRP-conjugated goat anti-rabbit and sheep anti-mouse secondary antibodies (GE healthcare).

STAT3 = assay: Western blot of phospho-STAT3 (Y705) in MEC lysates treated with Ang2 and AXT107; type: cell-based, human
Method: as §1
(§2) For Ang1/2 signaling investigations, cell culture dishes (10 cm diameter) were coated with 5 μg/ml fibronectin (FN1; Sigma-Aldrich, St. Louis, Mo.) for two hours at 37° C. The FN1 solution was then removed by aspiration and 5×10^6 microvascular endothelial cells (MECs; Lonza, Walkersville, Md.) were plated in EGM-2MV media (Lonza) and cultured for forty-eight hours at 37° C. […] Specific proteins were identified by Western blot, using the following primary antibodies: Cell Signaling—phospho-Tie2 (Y992) (Cat#: 4221), Tie2 (Cat#: 7403), phospho-Stat3 (Y705) (Cat#: 4113), Stat3 (Cat#: 4904), phospho-Akt (S473) (Cat#: 4058), Akt (Cat#: 9272), phospho-p44/42 MAPK (T202/Y204) (Cat#: 4370), p44/42 MAPK (Cat#: 4695); BD Transduction Laboratories—β1 integrin (Cat#: 610467); Millipore—α5 integrin (Cat#: AB1928) and detected with HRP-conjugated goat anti-rabbit and sheep anti-mouse secondary antibodies (GE healthcare).

Akt = assay: Western blot of phospho-Akt (S473) in MEC lysates treated with Ang2 and AXT107; type: cell-based, human
Method: as §1, §2

[1] = target: T1, α5 and β1 integrin subunits (Homo sapiens, UniProt P05556+P08648); assay: Duolink protein interaction analysis; type: cell-based; conditions: MEC monolayers; 100 μM AXT107 vs vehicle
T1 construct: host or cells: human dermal microvascular endothelial cells (MEC)
Method: Additionally, changes in the interaction between the α5 s and β1 subunits were further investigated using Duolink™ technology which can visualize individual interactions between α5 and β1 integrin subunits as distinct spots by fluorescence microscopy.
Glass bottom, 96-well plates were coated with FN1, seeded with MECs, as described above for the immunofluorescence experiments. After growing for forty-eight hours, cells were serum starved for three hours, treated with 100 μM AXT107 or DMSO vehicle for ninety minutes, washed twice with dPBS containing Ca^2+ and Mg^2+, and fixed in 10% neutral buffered formalin. Cells were blocked in 5% normal goat serum; 0.3% Triton X-100 in dPBS containing Ca^2+ and Mg^2+ for one hour and incubated overnight at 4° C. with rabbit anti-α5 integrin and mouse anti-β1 integrin antibodies in PBS containing Ca^2+ and Mg^2+ with 1% BSA and 0.1% Triton X-100. Interaction spots were developed using DUOLINK green detection reagent according to the manufacturer's instructions and detected using the BD pathway 855 system.

F-actin = F-actin immunofluorescence in MEC monolayers; type: cell-based, human; conditions: 200 ng/ml Ang2, increasing concentrations of AXT107
Method: The jaggedness of these junctions is related to the structure of actin within the cell.
Glass-bottomed, 96-well plates with half well size were coated with 10 μg/ml FN1 for two hours at 37° C. The FN1 solution was then removed by aspiration and the plate seeded with 4×10^3 MECs in EGM-2MV media. After twenty-four hours, the cells were washed once with dPBS containing Ca^2+ and Mg^2+ to remove dead cells and the cells were allowed to grow for an additional twenty-four hours. For three-hour duration treatments (i.e., VE-cadherin), cells were washed twice with dPBS containing Ca^2+ and Mg^2+ and serum starved in EBM-2 for ninety minutes. The media was then removed and the cells were treated for three hours with 100 μl of EBM-2 media containing 200 ng/ml Ang2 or PBS and varying concentrations of AXT107 or DMSO. For fifteen minute-treated samples (i.e., phospho-Tie2), the cells were serum starved in EBM-2 media for 165 minutes, incubated for ninety minutes with varying concentrations of AXT107 or DMSO in EBM-2, and finally stimulated for fifteen minutes with 200 ng/ml Ang2 or PBS supplemented with peptide to retain the same concentrations. These times were chosen so that both treatment procedures would be completed at the same time. The cells were then washed twice with cold dPBS containing Ca^2+ and Mg^2+ and fixed in 10% neutral buffered formalin for fifteen minutes. […]

integrin αvβ3 = integrin αvβ3 (Homo sapiens, UniProt P05106+P06756); conditions: Lee et al., Sci Rep. 2014; cited from earlier work
Chain of integrin αvβ3 (P06756 31-1048): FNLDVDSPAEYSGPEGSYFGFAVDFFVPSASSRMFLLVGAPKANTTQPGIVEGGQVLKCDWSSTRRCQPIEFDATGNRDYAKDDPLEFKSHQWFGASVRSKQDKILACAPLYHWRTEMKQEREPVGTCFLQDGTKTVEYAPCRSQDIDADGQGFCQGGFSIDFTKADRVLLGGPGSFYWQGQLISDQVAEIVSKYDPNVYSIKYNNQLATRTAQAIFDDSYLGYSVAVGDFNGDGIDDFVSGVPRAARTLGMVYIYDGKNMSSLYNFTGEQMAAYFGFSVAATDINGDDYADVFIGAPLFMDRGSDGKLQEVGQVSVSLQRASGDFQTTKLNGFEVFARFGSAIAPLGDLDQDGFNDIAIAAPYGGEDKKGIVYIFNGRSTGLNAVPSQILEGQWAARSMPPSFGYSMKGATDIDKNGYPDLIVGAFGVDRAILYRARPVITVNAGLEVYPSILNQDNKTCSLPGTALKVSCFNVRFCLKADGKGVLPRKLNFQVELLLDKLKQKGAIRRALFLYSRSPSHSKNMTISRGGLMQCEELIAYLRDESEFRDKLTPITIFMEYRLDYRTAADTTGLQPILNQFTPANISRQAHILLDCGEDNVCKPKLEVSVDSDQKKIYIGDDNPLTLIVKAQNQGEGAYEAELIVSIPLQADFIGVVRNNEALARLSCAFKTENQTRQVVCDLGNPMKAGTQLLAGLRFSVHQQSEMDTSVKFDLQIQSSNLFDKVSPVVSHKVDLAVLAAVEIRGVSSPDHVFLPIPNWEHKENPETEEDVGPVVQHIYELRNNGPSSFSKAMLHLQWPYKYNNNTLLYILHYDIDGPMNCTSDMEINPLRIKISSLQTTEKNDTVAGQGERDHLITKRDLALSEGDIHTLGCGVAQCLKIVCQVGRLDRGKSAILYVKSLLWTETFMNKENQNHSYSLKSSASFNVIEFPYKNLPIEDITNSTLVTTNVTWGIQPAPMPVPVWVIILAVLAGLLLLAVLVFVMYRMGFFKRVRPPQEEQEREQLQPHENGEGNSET
Chain of integrin αvβ3 (P05106 27-788): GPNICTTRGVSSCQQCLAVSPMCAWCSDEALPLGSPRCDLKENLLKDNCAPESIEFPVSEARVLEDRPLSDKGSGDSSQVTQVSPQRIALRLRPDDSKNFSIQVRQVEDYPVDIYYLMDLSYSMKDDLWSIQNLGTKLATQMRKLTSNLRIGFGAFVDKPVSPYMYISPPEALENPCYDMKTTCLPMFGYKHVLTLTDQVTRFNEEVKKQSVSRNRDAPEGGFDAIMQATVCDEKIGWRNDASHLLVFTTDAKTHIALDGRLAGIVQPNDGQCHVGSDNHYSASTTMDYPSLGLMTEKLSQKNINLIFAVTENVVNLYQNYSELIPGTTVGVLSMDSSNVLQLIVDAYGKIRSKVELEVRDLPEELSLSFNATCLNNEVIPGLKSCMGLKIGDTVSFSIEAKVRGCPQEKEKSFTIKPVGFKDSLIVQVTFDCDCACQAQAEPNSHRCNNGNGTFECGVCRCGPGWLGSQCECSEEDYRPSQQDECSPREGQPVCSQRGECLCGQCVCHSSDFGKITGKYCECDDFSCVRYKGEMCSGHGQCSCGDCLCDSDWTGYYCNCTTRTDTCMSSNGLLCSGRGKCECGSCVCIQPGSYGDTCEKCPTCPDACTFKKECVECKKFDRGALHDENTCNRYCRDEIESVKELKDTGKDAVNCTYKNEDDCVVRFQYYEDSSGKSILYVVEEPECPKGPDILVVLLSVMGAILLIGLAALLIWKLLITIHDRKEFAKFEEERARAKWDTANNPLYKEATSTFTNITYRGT

T1 sequence (P08648 42-894 limits assumed): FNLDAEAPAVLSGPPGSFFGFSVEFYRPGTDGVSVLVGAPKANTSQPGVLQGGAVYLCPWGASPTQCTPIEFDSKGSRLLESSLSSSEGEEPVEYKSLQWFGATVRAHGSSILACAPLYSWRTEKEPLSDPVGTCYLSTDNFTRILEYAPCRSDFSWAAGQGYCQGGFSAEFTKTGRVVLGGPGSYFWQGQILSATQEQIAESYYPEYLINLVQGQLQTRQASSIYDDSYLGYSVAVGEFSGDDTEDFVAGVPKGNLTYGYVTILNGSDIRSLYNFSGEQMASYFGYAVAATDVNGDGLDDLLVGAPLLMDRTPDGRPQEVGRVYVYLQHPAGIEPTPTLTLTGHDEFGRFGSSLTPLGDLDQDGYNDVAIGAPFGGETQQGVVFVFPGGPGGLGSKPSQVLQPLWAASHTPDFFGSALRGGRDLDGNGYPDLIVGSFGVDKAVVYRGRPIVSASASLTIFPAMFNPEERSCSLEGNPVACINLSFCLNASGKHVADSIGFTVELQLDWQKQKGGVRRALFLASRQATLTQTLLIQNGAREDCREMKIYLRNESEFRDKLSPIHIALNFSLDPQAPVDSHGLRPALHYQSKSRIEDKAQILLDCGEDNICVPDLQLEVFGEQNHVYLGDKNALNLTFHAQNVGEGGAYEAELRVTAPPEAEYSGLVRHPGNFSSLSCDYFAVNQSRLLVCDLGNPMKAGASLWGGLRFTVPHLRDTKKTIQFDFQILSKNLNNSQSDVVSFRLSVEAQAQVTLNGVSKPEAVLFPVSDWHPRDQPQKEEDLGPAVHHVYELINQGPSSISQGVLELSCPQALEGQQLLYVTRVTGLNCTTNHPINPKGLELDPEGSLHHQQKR
T1 sequence (P08648 895-1049 limits assumed): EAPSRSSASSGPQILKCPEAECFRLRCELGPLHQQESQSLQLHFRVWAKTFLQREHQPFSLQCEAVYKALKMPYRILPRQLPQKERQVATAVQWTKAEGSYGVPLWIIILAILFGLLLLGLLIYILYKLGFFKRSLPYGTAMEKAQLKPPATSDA
T1 sequence (P05556 21-798): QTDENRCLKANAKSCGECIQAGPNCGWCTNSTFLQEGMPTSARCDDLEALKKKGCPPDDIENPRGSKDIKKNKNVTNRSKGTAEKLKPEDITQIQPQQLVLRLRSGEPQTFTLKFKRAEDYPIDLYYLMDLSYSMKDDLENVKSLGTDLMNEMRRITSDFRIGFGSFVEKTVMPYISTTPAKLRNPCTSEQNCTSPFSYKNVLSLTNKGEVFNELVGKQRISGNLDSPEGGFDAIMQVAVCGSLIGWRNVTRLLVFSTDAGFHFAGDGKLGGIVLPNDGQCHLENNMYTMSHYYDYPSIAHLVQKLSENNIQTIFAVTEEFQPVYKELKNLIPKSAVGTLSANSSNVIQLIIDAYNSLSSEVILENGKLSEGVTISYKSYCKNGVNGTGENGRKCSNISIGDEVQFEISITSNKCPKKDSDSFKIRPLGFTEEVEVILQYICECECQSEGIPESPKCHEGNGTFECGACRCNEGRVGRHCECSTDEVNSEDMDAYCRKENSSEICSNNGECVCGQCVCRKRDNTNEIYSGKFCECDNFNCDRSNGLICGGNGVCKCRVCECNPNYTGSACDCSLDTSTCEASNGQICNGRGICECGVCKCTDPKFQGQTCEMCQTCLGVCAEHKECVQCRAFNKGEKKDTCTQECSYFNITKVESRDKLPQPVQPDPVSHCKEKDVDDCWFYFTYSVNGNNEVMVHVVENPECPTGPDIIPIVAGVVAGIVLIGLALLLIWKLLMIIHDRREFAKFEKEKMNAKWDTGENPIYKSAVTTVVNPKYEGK

Sequence: LRRFSTAPFAFIDINDVINF [AXT107]
- Tie2 phosphorylation (Tie2; AXT107 0-100 μM, then 200 ng/ml Ang2 15 min): increased phosphorylation; also recorded: significant, dose-dependent increase
- Ang1 activity (Tie2 phosphorylation) (Tie2; AXT107 followed by Ang1, data not shown): did not significantly influence
- total protein levels of Tie2 (Tie2; AXT107 with angiopoietin): remained unchanged; also recorded: does not influence total levels of Tie2
- phosphorylation by peptide alone (Tie2; in absence of either ligand): not induced
- STAT3 phosphorylation (STAT3): increased phosphorylation
- Akt phosphorylation (Akt): increased phosphorylation
- interactions between α5 and β1 integrin subunits [1]: significantly reduced
- actin fiber arrangement (F-actin): became more cortical
- binding to integrin αvβ3 (integrin αvβ3): binds tightly
